Common to all, as to type: biochemical
Assay [1] deals with T1, PKR T384W (Homo sapiens, UniProt P30613, T384W). The assay can be described thus: PKR T384W Single Point Percent Activation Assay. Particulars: compound at 1 μM; for activation at 1 µM: read-out: % Act. T384W. As to the method: PKR T384W Single Point Percent Activation Assay
A compound described herein was diluted with DMSO and tested at 1 μM concentration. The enzyme was diluted in 1× Buffer: (100 mM KCl, 50 mM Tris 7.5, 5 mM MgCl2, 1 mM DTT, 0.03% BSA). 2 μL of compound solution was first added into wells, and then 180 μL enzyme solution was added. Assays were assembled except for ADP, and plates were stored for 60 minutes at RT. 20 μL ADP was added to start the assay and assay output was evaluated using OD340 at SpectraMax. The assay was run at room temperature.
Final Concentration: PKR T384W soluble (300 ng/well), Tris pH 7.5 (50 mM), KCl (100 mM), MgCl2 (5 mM), ADP (0.08 mM), PEP (0.23 mM), NADH (180 μM), LDH (0.5 units, Sigma 59023), DTT (1 mM) and BSA (0.03%).

Assay [2] has as its target T2, PKR R532W (Homo sapiens, UniProt P30613, R532W). The assay can be described thus: PKR R532W Single Point Percent Activation Assay. Particulars: compound at 1 μM; for activation at 1 µM: read-out: % Act. R532W. As to the method: PKR R532W Single Point Percent Activation Assay
(§1) A compound described herein was diluted with DMSO and tested at 1 μM concentration. The enzyme was diluted in 1× Buffer: (100 mM KCl, 50 mM Tris 7.5, 5 mM MgCl2, 1 mM DTT, 0.03% BSA). 2 μL of compound solution was first added into wells, and then 180 μL of enzyme solution was added. Assays were assembled except for ADP, and plates were stored for 60 minutes at RT. 20 μL ADP was added to start the assay and assay output was evaluated using OD340 at SpectraMax. The assay was run at room temperature.
Final Concentration: PKR R532W (100 ng/well), Tris pH 7.5 (50 mM), KCl (100 mM), MgCl2 (5 mM), ADP (0.36 mM), PEP (0.1 mM), NADH (180 μM), LDH (0.5 units, Sigma 59023), DTT (1 mM) and BSA (0.03%).

The next assay deals with PKR wt (Homo sapiens, UniProt P30613). The assay can be described thus: PKR WT Single Point Percent Activation Assay. Particulars: compound at 1 μM. As to the method: PKR WT Single Point Percent Activation Assay
as §1
Final Concentration: PKR wt (100 ng/well), Tris pH 7.5 (50 mM), KCl (100 mM), MgCl2 (5 mM), ADP (0.48 mM), PEP (0.15 mM), NADH (180 μM), LDH (0.5 units, Sigma 59023), DTT (1 mM) and BSA (0.03%).

Assay [3] deals with T3, PKR R510Q (Homo sapiens, UniProt P30613, R510Q). The assay can be described thus: PKR R510Q Single Point Percent Activation Assay. The following applies: compound at 1 μM; for activation at 1 µM: read-out: % Act. R510Q. As to the method: PKR R510Q Single Point Percent Activation Assay
as §1
Final Concentration: PKR R510Q (40 ng/well), Tris pH 7.5 (50 mM), KCl (100 mM), MgCl2 (5 mM), ADP (0.2 mM), PEP (0.11 mM), NADH (180 μM), LDH (0.5 units, Sigma 59023), DTT (1 mM) and BSA (0.03%).

In assay [4] the target is T2, PKR R532W. Briefly: PKR Mutant Assay (AC50), PKR R532W. As to the method:
(§2) • PKR or PKR mutant enzyme solution was diluted in assay buffer. 2 μL of test compound was added into wells first, and then 180 μL reaction mix was added. • Reactions mixture with test compound was assembled except for ADP, and plates were stored for 60 minutes at room temperature. • 20 uL ADP was added to start reaction at room temperature and reaction progress was measured as changes in absorbance at 340 nm wavelength at room temperature. Test Compound Preparation: • Test compound stock was made at 100× concentration in 100% DMSO (10 mM) • 1 to 3 dilutions were made for 11 points (i.e. 50 μl of first concentration added to 100 μl 100% DMSO to yield 3.33 mM, 50 μl of this added to 100 μl DMSO to yield 1.11 mM, and so forth) • 1 to 100 dilution into assay (2 μl in 200 μl) yielded starting concentration of 100 μM, decreasing 3 fold for 11 points. Assay Buffer: 100 mM KCl, 50 mM Tris 7.5, 5 mM MgCl2, 1 mM DTT, 0.03% BSA Reaction Mixture: PKR mutant enzyme: 80-400 ng/well; ADP: 0.22-1.65 mM; PEP: 0.1-0.5 mM; NADH: 180 uM; LDH: 0.5 units (Sigma#59023); DTT: 1 mM; BSA: 0.03%.

Assay [5] addresses T1, PKR T384W. Briefly: PKR Mutant Assay (AC50), PKR T384W. As to the method: as §2
The target in a further assay is wild type PKR (Homo sapiens, UniProt P30613). The assay can be described thus: PKR Mutant Assay (AC50), wild type PKR. The following applies: read-out: PKR WT AC50. As to the method:
as §2

For another assay, the target named is PKR G332S (Homo sapiens, UniProt P30613, G332S). The assay can be described thus: PKR Mutant Assay (AC50), PKR G332S. As to the method: as §2
A further assay has as its target PKR G364D (Homo sapiens, UniProt P30613, G364D). Briefly: PKR Mutant Assay (AC50), PKR G364D. As to the method:
as §2

The next assay deals with PKR R479H (Homo sapiens, UniProt P30613, R479H). Briefly: PKR Mutant Assay (AC50), PKR R479H. As to the method:
as §2

Assay [6] addresses T3, PKR R510Q. The assay can be described thus: PKR Mutant Assay (AC50), PKR R510Q. As to the method: as §2

T1 sequence (P30613 whole entry T384W): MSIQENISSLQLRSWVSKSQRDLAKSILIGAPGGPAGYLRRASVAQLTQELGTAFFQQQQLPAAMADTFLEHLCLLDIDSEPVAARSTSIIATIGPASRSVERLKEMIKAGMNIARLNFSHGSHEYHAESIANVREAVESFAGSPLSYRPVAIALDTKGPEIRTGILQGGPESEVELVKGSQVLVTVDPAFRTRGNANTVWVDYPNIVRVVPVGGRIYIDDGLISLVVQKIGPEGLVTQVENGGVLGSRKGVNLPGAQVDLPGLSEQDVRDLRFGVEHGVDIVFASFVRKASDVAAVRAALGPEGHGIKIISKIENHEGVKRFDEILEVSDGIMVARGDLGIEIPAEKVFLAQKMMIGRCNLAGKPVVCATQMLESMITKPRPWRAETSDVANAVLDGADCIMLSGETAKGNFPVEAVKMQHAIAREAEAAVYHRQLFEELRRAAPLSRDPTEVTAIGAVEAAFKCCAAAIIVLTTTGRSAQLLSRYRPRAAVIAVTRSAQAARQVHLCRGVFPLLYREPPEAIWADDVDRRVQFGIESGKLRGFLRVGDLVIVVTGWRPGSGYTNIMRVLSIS
T3 sequence (P30613 whole entry R510Q): as the sequence (P30613 whole entry T384W) above, with W384T, R510Q counted along it
wild type PKR, sequence (P30613 whole entry): as the sequence (P30613 whole entry T384W) above, with W384T counted along it
PKR wt, sequence (P30613 whole entry): as the sequence (P30613 whole entry T384W) above, with W384T counted along it
T2 sequence (P30613 whole entry R532W): as the sequence (P30613 whole entry T384W) above, with W384T, R532W counted along it
PKR G332S, sequence (P30613 whole entry G332S): as the sequence (P30613 whole entry T384W) above, with G332S, W384T counted along it
PKR R479H, sequence (P30613 whole entry R479H): as the sequence (P30613 whole entry T384W) above, with W384T, R479H counted along it
PKR G364D, sequence (P30613 whole entry G364D): as the sequence (P30613 whole entry T384W) above, with G364D, W384T counted along it

In the case of `O=S(=O)(c1ccc2c(c1)OCCO2)N1CCN(S(=O)(=O)c2c(F)cccc2F)CC1`, the activation at 1 µM was in the range of 1 to 100% on PKR T384W [1], 1 to 100% on PKR R532W [2], 101 to 500% on PKR wt and 101 to 500% at PKR R510Q [3].
For `O=S(=O)(c1ccc2c(c1)OCCO2)N1CCCN(S(=O)(=O)c2c(F)cccc2F)CC1`, the activation at 1 µM at PKR T384W [1], at PKR R532W [2], on PKR wt and on PKR R510Q [3] was 101 to 500% throughout.
With `COc1cc(F)c(S(=O)(=O)N2CCN(S(=O)(=O)c3cccc(N)c3)CC2)c(F)c1`, the activation at 1 µM on PKR T384W [1], on PKR R532W [2], at PKR wt and on PKR R510Q [3] was 101 to 500% throughout.
Take `Nc1cccc(S(=O)(=O)N2CCN(S(=O)(=O)c3ccc4c(c3)OCCO4)CC2)c1`: the activation at 1 µM on PKR T384W [1] lay in the range of 1 to 100%; at PKR R532W [2], 101 to 500%; at PKR wt it was 1 to 100%; at PKR R510Q [3], 1 to 100%.
Regarding `Nc1cccc(S(=O)(=O)N2CCN(S(=O)(=O)c3c(F)cccc3F)CC2)c1`, the activation at 1 µM at PKR T384W [1], on PKR R532W [2], at PKR wt and at PKR R510Q [3] was 101 to 500% throughout.
For the compound `COc1cc(F)c(S(=O)(=O)N2CCCN(S(=O)(=O)c3cccc(N)c3)CC2)c(F)c1`, the activation at 1 µM at PKR T384W [1], on PKR R532W [2], at PKR wt and at PKR R510Q [3] was 101 to 500% throughout.
For `COc1cccc(Cn2ncc3c4sc([S+](C)[O-])cc4n(C)c3c2=O)c1` (centres unmarked), the AC50 at PKR R532W [4], at PKR T384W [5], at wild type PKR, at PKR G332S, on PKR G364D and on PKR R479H was below 100 nM throughout. Besides, at PKR R510Q [6], the AC50 is below 100 nM. For the same compound, the activation at 1 µM lay in the range of 1 to 100% at PKR T384W [1], 101 to 500% on PKR R532W [2], 1 to 100% on PKR wt and 101 to 500% on PKR R510Q [3].
Turning to `CSc1cc2c(s1)c1cnn(Cc3cccc(O)c3)c(=O)c1n2C`, the AC50 on PKR R532W [4], at PKR T384W [5], on wild type PKR, on PKR G332S, at PKR G364D and at PKR R479H was below 100 nM each time. The same compound returned an AC50 on PKR R510Q [6] below 100 nM. The activation at 1 µM at PKR T384W [1] is 101 to 500%; on PKR R532W [2] it was 101 to 500%; on PKR wt, 101 to 500%; on PKR R510Q [3], above 500%.
As for `CCCCCn1ncc2c3sc(C)cc3n(C)c2c1=O`, the activation at 1 µM on PKR T384W [1], on PKR R532W [2], at PKR wt and at PKR R510Q [3] was 101 to 500% in each case.
In the case of `Cn1c2cc([S+](C)[O-])sc2c2cnn(Cc3ccccc3F)c(=O)c21` (centres unmarked), the AC50 on PKR R532W [4] was above 500 nM; at PKR T384W [5], above 500 nM; on wild type PKR, 101 to 500 nM; on PKR G332S, above 500 nM; at PKR G364D, 101 to 500 nM; at PKR R479H, 101 to 500 nM. The compound further displayed a half-maximal activity concentration (AC50) at PKR R510Q [6] of 101 to 500 nM. For the same compound, the activation at 1 µM on PKR T384W [1], at PKR R532W [2], at PKR wt and at PKR R510Q [3] was 101 to 500% each time.
Regarding `Cn1c2cc([S+](C)[O-])sc2c2cnn(Cc3cccc(O)c3)c(=O)c21` (centres unmarked), the AC50 at PKR R532W [4], on PKR T384W [5], on wild type PKR, at PKR G332S, at PKR G364D and at PKR R479H was below 100 nM each time. Also, the AC50 at PKR R510Q [6] was below 100 nM. Further, the activation at 1 µM at PKR T384W [1], at PKR R532W [2], at PKR wt and at PKR R510Q [3] was 101 to 500% in each case.
On to `Nc1cccc(S(=O)(=O)N2CCCN(S(=O)(=O)c3ccc4c(c3)OCCO4)CC2)c1` [drawing 17], for which the “% Act. T384W” value on PKR T384W [1] is “B (a % activation at 1 μM of from 101 to 500)”. At PKR R532W [2], the “% Act. R532W” value is reported as “A (a % activation at 1 μM of from 1 to 100)”. The “% Act. WT” value at PKR wt is reported as “B (a % activation at 1 μM of from 101 to 500)”. At PKR R510Q [3], the “% Act. R510Q” value is “B (a % activation at 1 μM of from 101 to 500)”.
As to `Nc1cccc(S(=O)(=O)N2CCCN(S(=O)(=O)c3ccc4c(c3)OCCO4)CC2)c1` [drawing 23], the activation at 1 µM on PKR T384W [1], at PKR wt and at PKR R510Q [3] was 101 to 500% each time. Moreover, the “% Act. R532W” value on PKR R532W [2] is “B (a % activation at 1 μM of from 101 to 500)”.

By AC50 is commonly meant the midpoint of the concentration-response curve, whichever way the signal moves.

Values taken from patent US9403792B2, “Methods of using pyruvate kinase activators” (AGIOS PHARMACEUTICALS, INC, priority 2011, dated 2016).
